From patent US10780174B2, “Lipid-linked prodrugs” (The University of British Columbia, priority 2015, dated 2020) come the findings set out here.

One data set concerns OVCAR3 cells. Kind of data set: In vitro growth inhibition by LD-DTX prodrugs, cell viability assay. Format: cell-based. To be noted: for IC50: Homo sapiens, OVCAR-3, 48 h, Ovcar3 cells. Here is the method:
OVCAR3 cells were obtained from ATCC (Manassas, Va.). Cells were seeded at 12,000 cells per well on 96-well plates and treated with free docetaxel, prodrugs, lipid nanoparticle formulations with or without prodrugs at 0 to 15 μM of docetaxel for 48 h. Cell viability was determined by a colorimetric assay, based on the tetrazolium salt MIT (3-(4,5-dimethylthiazol-2-yl)-2,5-diphenyltetrazolium bromide), as described previously [Mossman 1983].

In data set [1] the test system is immunostimulatory effects of LNP-CpG (plasma cytokines). The experiment in a line: In vivo immune suppression by LD-DEX prodrugs, LNP-CpG model. The arrangement: species or system C57Bl/6 mice. The note with it: mice, i.v., 10 mg/kg of CpG, 2 h post injection. Here is the method: 6-8 Weeks old female C57Bl/6 mice (Charles River Laboratories™, Wilmington, Mass.) were injected intravenously with lipid nanoparticles containing CpG DNA oligonucleotides (10 mg/kg), mRNA (3 mg/kg) or plasmid DNA (pDNA) (1 mg/kg). Animals were euthanized 2 hours post-injection and blood was collected via intracardiac or saphenous sampling. Plasma was separated from whole blood by centrifugation and analyzed for proinflammatory cytokines using the Mesoscale Proinflammatory Multiplex™ kit (Rockville, Md.) according to manufacturer's instruction. All procedures were approved by the Animal Care Committee at the University of British Columbia and were performed in accordance with guidelines established by the Canadian Council on Animal Care.

Data set [2] in a line: Particle size and polydispersity of LNP containing prodrug (dynamic light scattering). Format: physicochemical. The note with it: PDI in brackets. The procedure: (§1) Preparation of LNP Systems: PC-Chol LNP systems were prepared by rapidly mixing POPC, cholesterol, lipid-linked prodrug and PEG-DMPE (in molar ratio of 49/39/10/2) dissolved in ethanol with phosphate-buffered saline using a T-junction mixer. Formulations were dialyzed against phosphate-buffered saline to remove residual ethanol and to raise the pH to 7.4. PC-TO and ionizable LNP systems were prepared in the same way except that the lipid compositions for these systems are: POPC, triolein, lipid-linked prodrug and PEG-DSPE (in molar ration of 19/70/10/1), and ionizable lipid, DSPC, cholesterol, lipid-linked prodrug and PEG-DMPE (in molar ration of 40/10/38.5/10/1.5), respectively.
Characterization of LNP: Particle size was determined by dynamic light scattering using a Malvern Zetasizer Nano ZS™ (Malvern, UK) following buffer exchange into phosphate-buffered saline. Number-weighted size and distribution data was used. Lipid concentrations were determined by measuring total cholesterol using the Cholesterol E enzymatic assay kit from Wako Chemicals USA™ (Richmond, Va.). The morphology of LNP formulations containing LD-DEX was analyzed by cryogenic-transmission electron microscopy (cryoTEM) as described previously [Leung et al. (2012)].

Data set [3] is described as follows: Prodrug incorporation (entrapment) in lipid nanoparticles, UHPLC. Format: physicochemical. Here is the method:
as §1
(§2) Quantitation of prodrugs by HPLC: LD-DEX/DTX were quantified by ultra high-pressure liquid chromatography (UHPLC) using a Waters Acquity™ UPLC system equipped with a photodiode array detector (PDA) and evaporative light scattering (ELS) detector; Empower™ data acquisition software version 3.0 was used (Waters™, USA). Separations were performed using a Waters Acquity™ BEH C18 column (1.7 μm, 2.1×100 mm) at a flow rate of 0.5 ml/min, with mobile phases A and B consisting of methanol/10 mM ammonium bicarbonate (80/20% v/v) and methanol/acetonitrile (80/20% v/v), respectively. The mobile phases were delivered at a programmed linear gradient (45%-80% B in 1 min then to 99% B at 2 min) at a column temperature of 55° C. The analyte was measured by PDA (at a wavelength of 239 nm) and ELS detector against calibration standard curves. For the analysis of LD-DEX/DTX breakdown to active compound, linear gradients of 20/80% to 100/0% (acetonitrile/water, v/v) over 7 min were used.

The nature of data set [4]: In vitro degradation of lipid-linked prodrugs in LNP, mouse plasma. It counts as in vitro ADME. The note with it: LNP; for prodrug cleavage/degradation after 1 h in plasma: 37° C., mouse plasma. The procedure: as §2
To determine the biodegradability of the dexamethasone or docetaxel prodrugs (LD-DEX/DTX), 1 mg/mL LNP was incubated in mouse plasma (Cedarlane™, Burlington, Ontario) or PBS supplemented with 10 U of purified esterase (Sigma-Aldrich™, St. […] Post incubation, four volumes of chloroform/methanol (2:1) was added and the mixture was vortex mixed. Samples were centrifuged at 13,000 g for 5 minutes and the upper phase was discarded. The remaining organic phase was dried down under vacuum and the resulting lipid extract was dissolved in methanol/acetonitrile (1:1). Quantity of parent LD-DEX/DTX compound was determined by ultra high pressure liquid chromatography on a Waters Acquity™ H-Class UPLC System™ equipped with a BEH C18 column and a photodiode array detector.

Data set [5] concerns purified porcine esterase. Kind of data set: In vitro degradation of lipid-linked prodrugs in LNP, purified esterase in PBS. The note with it: LNP, 24 h incubation.
Setting [6] is: LD-DEX prodrug in ionizable LNP.
[7] abbreviates: LD-DTX prodrug in ionizable LNP.

As for `CC(=O)O[C@@]12CO[C@@H]1C[C@H](O)[C@@]1(C)C(=O)[C@H](O)C3=C(C)[C@@H](OC(=O)[C@H](O)[C@@H](NC(=O)OC(C)(C)C)c4ccccc4)C[C@@](O)([C@@H](OC(=O)c4ccccc4)[C@H]21)C3(C)C` [Docetaxel, reference compound], the “suppression of cancer cell proliferation / IC50 comparison (in words)” value in the data set with OVCAR3 cells (OVCAR3, 0 to 15 μM of docetaxel, 48 h) was “much lower than all the other test articles”.

For `CCCCC/C=C\C/C=C\CCCCCCCC(=O)OC(COC(=O)CCC(=O)OCC(=O)[C@@]1(O)[C@H](C)C[C@H]2[C@@H]3CCC4=CC(=O)C=C[C@]4(C)[C@@]3(F)[C@@H](O)C[C@@]21C)CN(C)C` (stereo partly shown) [LD01-DEX], the “plasma TNFα and KC/GRO levels versus control LNP-CpG” value in data set [1] is on record as “marked reduction in cytokine levels”. Besides, the “Particle size (PDI) PC-Chol LNP” value in data set [2] (LD-DEX prodrug in PC-Chol LNP) is 77 (0.06) nm. In addition, the “Particle size (PDI) [ionizable LNP]” value in data set [2] (setting [6]) was “[51 (0.04)] nm”. The “% Entrapment PC-Chol LNP” value in data set [3] (LD-DEX prodrug in PC-Chol LNP) was determined as 72%. Moreover, the “% Entrapment [ionizable LNP]” value in data set [3] (setting [6]) was “[65] %”. For the same compound, in data set [3] (of the input amount), the “input amount incorporated into the final lipid nanoparticle preparation” value is 65-72 mol %. In addition, the “prodrug cleavage/degradation after 1 h in plasma” value (“prodrug cleavage/degradation” for short) in data set [4] is recorded as “significant cleavage”.

`CCCCC/C=C\C/C=C\CCCCCCCC(=O)OCC(COC(=O)CCC(=O)O[C@@H](C(=O)O[C@H]1C[C@@]2(O)[C@@H](OC(=O)c3ccccc3)[C@@H]3[C@]4(OC(C)=O)CO[C@@H]4C[C@H](O)[C@@]3(C)C(=O)[C@H](O)C(=C1C)C2(C)C)[C@@H](NC(=O)OC(C)(C)C)c1ccccc1)OC(=O)CCCCCCC/C=C\C/C=C\CCCCC` (stereo partly drawn) [LD10-DTX, (2R,3S)-1-(((2aR,4S,4aS,6R,9S,11S,12S,12aR,12bS)-12b-acetoxy-12-(benzoyloxy)-4,6,11-trihydroxy-4a,8,13,13-tetramethyl-5-oxo-2a,3,4,4a,5,6,9,10,11,12,12a,12b-dodecahydro-1H-7,11-methanocyclodeca[3,4]benzo[1,2-b]oxet-9-yl)oxy)-3-((tert-butoxycarbonyl)amino)-1-oxo-3-phenylpropan-2-yl (2,3-bis((9Z,12Z)-octadeca-9,12-dienoyloxy)propyl) succinate]: the IC50 (usually the concentration needed to halve the response being measured) with OVCAR3 cells (Free drugs) was determined as 156 nM; in the data set with OVCAR3 cells (PC-Chol LNP), 374 nM; in the data set with OVCAR3 cells (PC-TO LNP), 791 nM; in the data set on OVCAR3 cells (ionizable LNP), 133 nM. For the same compound, in data set [2] (LD-DTX prodrug in PC-Chol LNP), the “Particle size (PDI) PC-Chol LNP” value is 58 (0.06) nm. In addition, in data set [2] (setting [7]), the “Particle size (PDI) [ionizable LNP]” value was “[42 (0.06)] nm”. In data set [3] (LD-DTX prodrug in PC-Chol LNP), the “% Entrapment PC-Chol LNP” value came out at 95%. Also, the “% Entrapment [ionizable LNP]” value in data set [3] (setting [7]) is “[100] %”. Besides, in data set [4], the “prodrug cleavage/degradation” value is recorded as “largely not degraded”.

As to `CCCCCCCC/C=C\CCCCCCCC(=O)OCC(COC(=O)CCC(=O)O[C@@H](C(=O)O[C@H]1C[C@@]2(O)[C@@H](OC(=O)c3ccccc3)[C@@H]3[C@]4(OC(C)=O)CO[C@@H]4C[C@H](O)[C@@]3(C)C(=O)[C@H](O)C(=C1C)C2(C)C)[C@@H](NC(=O)OC(C)(C)C)c1ccccc1)OC(=O)CCCCCCC/C=C\CCCCCCCC` (stereo partly drawn) [LD23-DTX, (2R,3S)-1-(((2aR,4S,4aS,6R,9S,11S,12S,12aR,12bS)-12b-acetoxy-12-(benzoyloxy)-4,6,11-trihydroxy-4a,8,13,13-tetramethyl-5-oxo-2a,3,4,4a,5,6,9,10,11,12,12a,12b-dodecahydro-1H-7,11-methanocydodeca[3,4]benzo[1,2-b]oxet-9-yl)oxy)-3-((tert-butoxycarbonyl)amino)-1-oxo-3-phenylpropan-2-yl (2,3-bis(oleoyloxy)propyl) succinate], the IC50 in the data set with OVCAR3 cells (Free drugs) is 64.5 nM; in the data set on OVCAR3 cells (PC-Chol LNP) it was approximately 15600 nM; in the data set on OVCAR3 cells (PC-TO LNP) it was 692 nM; in the data set with OVCAR3 cells (ionizable LNP) it was 99.9 nM. In data set [2] (LD-DTX prodrug in PC-Chol LNP), the “Particle size (PDI) PC-Chol LNP” value was 60 (0.05) nm. For the same compound, the “Particle size (PDI) [ionizable LNP]” value in data set [2] (setting [7]) was “[39 (0.06)] nm”. The “% Entrapment PC-Chol LNP” value in data set [3] (LD-DTX prodrug in PC-Chol LNP) worked out at 100%. The “% Entrapment [ionizable LNP]” value in data set [3] (setting [7]) was “[100] %”. In addition, the “prodrug cleavage/degradation” value in data set [4] is listed as “largely not degraded”.

Regarding `CCCCCCCCCCCCCC(=O)OCC(COC(=O)CCC(=O)O[C@@H](C(=O)O[C@H]1C[C@@]2(O)[C@@H](OC(=O)c3ccccc3)[C@@H]3[C@]4(OC(C)=O)CO[C@@H]4C[C@H](O)[C@@]3(C)C(=O)[C@H](O)C(=C1C)C2(C)C)[C@@H](NC(=O)OC(C)(C)C)c1ccccc1)OC(=O)CCCCCCCCCCCCC` (stereo partly drawn) [LD22-DTX, (2R,3S)-1-(((2aR,4S,4aS,6R,9S,11S,12S,12aR,12bS)-12b-acetoxy-12-(benzoyloxy)-4,6,11-trihydroxy-4a,8,13,13-tetramethyl-5-oxo-2a,3,4,4a,5,6,9,10,11,12,12a,12b-dodecahydro-1H-7,11-methanocyclodeca[3,4]benzo[1,2-b]oxet-9-yl)oxy)-3-((tert-butoxycarbonyl)amino)-1-oxo-3-phenylpropan-2-yl (2,3-bis(tetradecanoyloxy)propyl) succinate], in data set [5], the “release of active drug (UPLC chromatogram) in purified esterase” value is on record as “active docetaxel (DTX) was observed”. Moreover, the IC50 in the data set on OVCAR3 cells (Free drugs) was 51.7 nM; in the data set on OVCAR3 cells (PC-Chol LNP) it was approximately 1550 nM; with OVCAR3 cells (PC-TO LNP), 315 nM; with OVCAR3 cells (ionizable LNP), 93 nM. Moreover, in data set [2] (LD-DTX prodrug in PC-Chol LNP), the “Particle size (PDI) PC-Chol LNP” value was 65 (0.04) nm. The “Particle size (PDI) [ionizable LNP]” value in data set [2] (setting [7]) is “[39 (0.07)] nm”. Besides, the “% Entrapment PC-Chol LNP” value in data set [3] (LD-DTX prodrug in PC-Chol LNP) worked out at 93%. The “% Entrapment [ionizable LNP]” value in data set [3] (setting [7]) was “[100] %”. Moreover, the “prodrug cleavage/degradation” value in data set [4] is reported as “largely not degraded”. Moreover, the “release of active drug (UPLC chromatogram) in mouse plasma” value in data set [4] (24 h incubation) is recorded as “active docetaxel (DTX) was observed”.
